Data: patent US10377741B2, “Substituted heteroaryl aldehyde compounds and methods for their use in increasing tissue oxygenation” (Global Blood Therapeutics, Inc., priority 2011, dated 2019)

How the values were obtained:
whole blood = assay: Whole blood assay: oxygen equilibrium curves of whole blood; format: cell-based, human (homozygous sickle cell patients); conditions: compound at 1000 μM; hematocrit 20%, 1 hour at 37° C.
Method: Oxygen Equilibrium Curves (OEC) of whole blood before and after treatment with different concentrations of substituted benzaldehyde compounds were performed as follows using a HEMOX analyzer (TCS Scientific, New Hope, Pa.). Blood samples from homozygous sickle cell patients were obtained though the Hemoglobinopathy Center at Children's Hospital Oakland Research Institute (CHORI) with Institutional Review Board approval. The hematocrit was adjusted to 20% using autologous plasma and the blood samples were incubated for 1 hour at 37° C. in absence or presence of compounds. 100 μl of these samples were added to 5 mL of Hemox buffer (30 mM TES, 130 mM NaCl, 5 mM KCl, pH=7.4) at 37° C. and then transferred to the Hemox sample chamber. The samples were saturated with oxygen by flushing with compressed air for 10 minutes. The samples were then flushed with pure nitrogen and the respective absorbances of oxy- and deoxy-Hb are recorded as a function of the solution pO2. The oxygen equilibrium data were then fitted to the Hill Model to obtain values for p50. The deoxygenation curves for both whole blood alone (control) and whole blood in the presence of the compound were collected with the TCS software.
Table 5 below lists the delta p50% values where + indicates a delta p50% of between 0 and 29, ++ indicates a delta p50% of between 30 and 50, and +++ indicates a delta p50% of 50 or greater. Unless noted otherwise, the compounds in Table 2 were tested at 1000 μM.

HbS/A = molecular target: T1, HbS/A (Homo sapiens, UniProt P68871+P69905, E7V); assay: R/T assay (relaxed-to-tense transition under deoxygenated conditions); format: biochemical, human (homozygous sickle cell patients); conditions: 3 μM HbS/A, % R remaining vs no treatment
T1 construct: A mixture of HbS/A was purified from blood; from tissue; host or cells: blood of homozygous sickle cell patients (CHORI)
Summary of the method: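 Purified HbS/A (3 μM final) incubated 1 hr at 37° C with compounds (3 μM to 100 μM) in potassium phosphate buffer pH 7.4 with 30 μM DPG, then deoxygenated under N2 with 300–700 nm spectra every 5 min for 2 hours. Delta R is % R state retained versus untreated, by linear regression over all wavelengths.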

purified HBS = molecular target: T2, purified HBS (Homo sapiens, UniProt P68871+P69905, E7V); assay: Polymerization assay (delay time of HbS polymerization); format: biochemical, human (homozygous sickle cell patients); conditions: percent delay (% DT) vs HBS alone; 50 μM purified HBS, 1.8 M potassium phosphate pH 7.4
T2 construct: HbS was purified by a modified procedure; from tissue; host or cells: blood of homozygous sickle cell patients (CHORI); for the polymerization assay purified by the CRO VIRUSYS
Method: Polymerization assays are carried out in vitro using purified HBS exchanged into 1.8 M potassium phosphate buffer at pH 7.4. Using a slightly modified protocol (Antonini and Brunori, 1971), HbS is purified by the CRO VIRUSYS, from blood obtained from homozygous sickle cell patients through the Hemoglobinopathy Center at Children's Hospital Oakland Research Institute (CHORI) with Institutional Review Board approval. Compounds are prepared in 100% DMSO and a desired amount is added to 50 μM of purified HBS at a final DMSO concentration of 0.3%. Final potassium phosphate concentration is adjusted to 1.8 M using a combination of 2.5 M potassium phosphate stock solution and water at pH 7.4. The reaction mixture is incubated for an hour at 37° C. and then transferred into a 24-well plate for deoxygenation in a glove box containing 99.5% nitrogen and 0.5% oxygen. The 24-well plate is not covered and incubated at 4° C. on a plate cooler inside the glove box for one and a half hours. Fifty μL of the reaction mixture is transferred into a 96-well plate and the absorbance at 700 nm is measured every minute for one hour at 37° C. in a plate reader located inside the glove box. A plot of the absorbance against time is fitted using a Boltzman sigmoidal fit and the delay time (from zero to time at half Vmax) is measured. To compare and rank compounds, delay times are expressed as percent delay (% DT), which is defined as the difference in delay times for HBS/compound and HBS alone multiplied by 100 and divided by the delay time for HBS alone.
Compounds listed below have been tested in the polymerization assay. Activity ranges are defined by the number of dagger (†) symbols indicated. † denotes activity ≥40% but ≤80%; †† denotes activity >80% but ≤120%; ††† denotes activity >120% but ≤140%; †††† denotes activity >160%.

[1] = molecular target: T3, purified Hemoglobin S (HbS) (Homo sapiens, UniProt P68871+P69905, E7V); assay: Modulation of hemoglobin oxygen affinity: oxygen equilibrium curves (HEMOX) in purified HbS; format: biochemical, human (homozygous sickle cell patients); conditions: compound at 30 μM; 25 μM purified HbS, 45 min at 37° C.
T3 construct: HbS was purified by a modified procedure; from tissue; host or cells: blood of homozygous sickle cell patients (CHORI); for the polymerization assay purified by the CRO VIRUSYS
Summary of the method: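 HbS from homozygous sickle cell patient blood, 25 μM in HEMOX buffer pH 7.4, incubated 45 min at 37° C with compound (30 μM unless noted). Air-saturated then deoxygenated with N2; p50 from Hill fit; delta p50% = (control p50 − treated p50)/control p50 × 100.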

SMILES	delta p50% Values for Whole Blood Assay (whole blood)	delta R (HbS/A; compound at 9 μM)	% delta Delay (purified HBS)	delta p50% [1]	delta R (HbS/A; compound at 30 μM)	delta R (HbS/A; compound at 3 μM)
O=Cc1cc(OC(F)F)ncc1OCc1cccn2ccnc12 [Compound 158, 2-(difluoromethoxy)-5-(imidazo[1,2-a]pyridin-8-ylmethoxy)isonicotinaldehyde]	+ (a delta p50% of between 0 and 29)	+ (a delta R of between 0 and 30)	† (activity ≥40% but ≤80%)	++ (a delta p50% of between 30 and 50)		
COc1cc(C=O)c(OCc2cccnc2-c2ccccc2)cn1 [Compound 159, 2-methoxy-5-((2-phenylpyridin-3-yl)methoxy) isonicotinaldehyde]	+++ (a delta p50% of 50 or greater)		†† (activity >80% but ≤120%)	+++ (a delta p50% of 50 or greater)	++ (a delta R of between 30 and 50)	
COc1cc(C=O)c(OCc2ccncc2-c2ccnn2C(C)C)cn1 [Compound 160, 5-((3-(1-isopropyl-1H-pyrazol-5-yl)pyridin-4-yl)methoxy)-2-methoxyisonicotinaldehyde]	+++ (a delta p50% of 50 or greater)		†† (activity >80% but ≤120%)	+++ (a delta p50% of 50 or greater)	+ (a delta R of between 0 and 30)	
COc1cc(C=O)c(OCc2cccnc2-c2ccccc2C)cn1 [Compound 162, 2-methoxy-5-((2-(o-tolyl)pyridin-3-yl)methoxy)isonicotinaldehyde]	+++ (a delta p50% of 50 or greater)		†† (activity >80% but ≤120%)	+++ (a delta p50% of 50 or greater)	+++ (a delta R of 50 or greater)	
COc1cc(C=O)c(OCc2cccnc2-c2cccnc2OC)cn1 [Compound 163, 2-methoxy-5-((2′-methoxy-[2,3′-bipyridin]-3-yl)methoxy)isonicotinaldehyde]	+++ (a delta p50% of 50 or greater)		†† (activity >80% but ≤120%)	+++ (a delta p50% of 50 or greater)	++ (a delta R of between 30 and 50)	
COC(=O)c1ccc(COc2cccnc2C=O)cc1 [Compound 164]	++ (a delta p50% of between 30 and 50)	++ (a delta R of between 30 and 50)	††† (activity >120% but ≤140%)	++ (a delta p50% of between 30 and 50)		
Cc1ccc(OCc2ccc(C(=O)O)cc2)c(C=O)n1 [Compound 165, 4-(((2-formyl-6-methylpyridin-3-yl)oxy)methyl)benzoic acid]	+ (a delta p50% of between 0 and 29)	+ (a delta R of between 0 and 30)	††† (activity >120% but ≤140%)	++ (a delta p50% of between 30 and 50)		
O=Cc1ccncc1OCc1cccc(C(=O)O)c1 [Compound 169, 3-(((4-formylpyridin-3-yl)oxy)methyl)benzoic acid]	++ (a delta p50% of between 30 and 50)	++ (a delta R of between 30 and 50)	††† (activity >120% but ≤140%)	++ (a delta p50% of between 30 and 50)		
CCCn1nccc1-c1ncccc1COc1cnc(OC)cc1C=O [Compound 173, 2-methoxy-5-((2-(1-propyl-1H-pyrazol-5-yl)pyridin-3-yl)methoxy)isonicotinaldehyde]	+++ (a delta p50% of 50 or greater)		† (activity ≥40% but ≤80%)	+++ (a delta p50% of 50 or greater)	+++ (a delta R of 50 or greater)	
COc1cc(C=O)c(OCc2cccnc2-c2ccnn2CC(F)(F)F)cn1 [Compound 174, 2-methoxy-5-((2-(1-(2,2,2-trifluoroethyl)-1-pyrazol-5-yl)pyridin-3-yl)methoxy)isonicotinaldehyde]	+++ (a delta p50% of 50 or greater)		†† (activity >80% but ≤120%)	+++ (a delta p50% of 50 or greater)	++ (a delta R of between 30 and 50)	
COc1cc(C=O)c(OCc2cccnc2-c2ccnn2CC(F)F)cn1 [Compound 175, 5-((2-(1-(2,2-difluoroethyl)-1H-pyrazol-5-yl)pyridin-3-yl)methoxy)-2-methoxyisonicotinaldehyde]	+++ (a delta p50% of 50 or greater)		†† (activity >80% but ≤120%)	+++ (a delta p50% of 50 or greater)	++ (a delta R of between 30 and 50)	
CC(C)n1nccc1-c1ncccc1COc1cccnc1C=O [Compound 176, 3-((2-(1-isopropyl-1H-pyrazol-5-yl)pyridin-3-yl)methoxy)picolinaldehyde]	+++ (a delta p50% of 50 or greater)	+ (a delta R of between 0 and 30)	† (activity ≥40% but ≤80%)	+++ (a delta p50% of 50 or greater)		
Cc1ccc(OCc2cccnc2-c2ccnn2C(C)C)c(C=O)n1 [Compound 177, 3-((2-(1-isopropyl-1H-pyrazol-5-yl)pyridin-3-yl)methoxy)-6-methylpicolinaldehyde]	+++ (a delta p50% of 50 or greater)		† (activity ≥40% but ≤80%)	+++ (a delta p50% of 50 or greater)		+ (a delta R of between 0 and 30)
CC(C)n1nccc1-c1ncccc1COc1cnc(OC(F)F)cc1C=O [Compound 178, 2-(difluoromethoxy)-5-((2-(1-isopropyl-1H-pyrazol-5-yl)pyridin-3-yl)methoxy)isonicotinaldehyde]	++ (a delta p50% of between 30 and 50)	+ (a delta R of between 0 and 30)	† (activity ≥40% but ≤80%)	++ (a delta p50% of between 30 and 50)		
COCCOc1cc(C=O)c(OCc2cccnc2-c2ccnn2C(C)C)cn1 [Compound 180, 5-((2-(1-isopropyl-1H-pyrazol-5-yl)pyridin-3-yl)methoxy)-2-(2-methoxyethoxy)isonicotinaldehyde]	+++ (a delta p50% of 50 or greater)		† (activity ≥40% but ≤80%)	+++ (a delta p50% of 50 or greater)	++ (a delta R of between 30 and 50)	
COc1cc(C=O)c(OCc2nccnc2-c2ccnn2C(C)C)cn1 [Compound 181, 5-((3-(1-isopropyl-1H-pyrazol-5-yl)pyrazin-2-yl)methoxy)-2-methoxyisonicotinaldehyde]	+++ (a delta p50% of 50 or greater)	+ (a delta R of between 0 and 30)	††† (activity >120% but ≤140%)	+++ (a delta p50% of 50 or greater)		
